Laboratory results reported in patent US7902260B2, “Medicament for preventive and/or therapeutic treatment of lower urinary tract symptom” (Kemphys Ltd., priority 2007, dated 2011).

Tested on: Rat Hydrochloric Acid-induced Cystitis Model
Assay: Evaluation in a rat hydrochloric acid-induced cystitis model (cystometry)
Type: in vivo
Procedure: On day 1, Crlj:CD(SD) male rats at 8 weeks of age were anesthetized by 2% isofurane inhalation and the abdomen of the rats were opened. After cannula was inserted into the bladder and fixed, the incision was closed with suture. On day 2, 0.2 N hydrochloric acid was injected into the bladder through cannula for 15 min to induce cystitis. On day 3, the first oral administration of a drug was performed. Since then, the drug was administrated once a day continuously for 7 days. As a retinoid drug, 3 mg/kg tamibarotene (Am80, 4-[(5,6,7,8-tetrahydro-5,5,8,8-tetramethyl-2-naphthalenyl)-carbamoyl] benzoic acid) suspended in 0.5% carboxymethylcellulose was orally administered. For the control group, 0.5% carboxymethylcellulose was orally administered. On day 10, bladder function under unanesthetized and unrestrained state was evaluated by cystometry. Via a three-way stopcock, warm saline (37° C.) was infused into the tube which was inserted into the bladder. At the other end of a three-way stopcock, bladder pressure was measured for 60 min by a pressure amplifier through a pressure transducer. At the same time, the weight change of excreted urine was measured using a balance. From these measured data, basal bladder pressure, maximum bladder pressure, micturition interval, and micturition volume were calculated. 5 rats were used in each group, control and tamibarotene group.
Values were indicated as average ±standard error. The difference between averages of control group and tamibarotene group was evaluated by Student's t-test (***p<0.001 compared with control).

[1] = 3 mg/kg oral once a day for 7 days, cystometry on day 10, unanesthetized unrestrained rats, average ± standard error

Compound CC1(C)CCC(C)(C)c2cc(NC(=O)c3ccc(C(=O)O)cc3)ccc21 [Tamibarotene, 4-[(5,6,7,8-tetrahydro-5,5,8,8-tetramethyl-2-naphthalenyl)-carbamoyl] benzoic acid] has a Basal bladder pressure [1] of 15.1 ± 2.8 mmHg, a Maximum bladder pressure [1] of 36.6 ± 6.0 mmHg and a Micturition volume (3 mg/kg oral once a day for 7 days, cystometry on day 10, average ± standard error) of 0.61 ± 0.24 g. The Micturition interval (3 mg/kg oral once a day for 7 days, cystometry on day 10, average ± standard error, ***p<0.001 compared with control) was 884 ± 113*** second and the “Micturition interval compared to control group (in words)” value (3 mg/kg tamibarotene-administered group vs control, Student's t-test) was “significantly improved”.
